Consider seven compounds from patent US20040162353A1 (priority 2000, published 2004).

For one series, the target named is T1, ODC (Homo sapiens, UniProt P11926).
T1 sequence (P11926 1-461): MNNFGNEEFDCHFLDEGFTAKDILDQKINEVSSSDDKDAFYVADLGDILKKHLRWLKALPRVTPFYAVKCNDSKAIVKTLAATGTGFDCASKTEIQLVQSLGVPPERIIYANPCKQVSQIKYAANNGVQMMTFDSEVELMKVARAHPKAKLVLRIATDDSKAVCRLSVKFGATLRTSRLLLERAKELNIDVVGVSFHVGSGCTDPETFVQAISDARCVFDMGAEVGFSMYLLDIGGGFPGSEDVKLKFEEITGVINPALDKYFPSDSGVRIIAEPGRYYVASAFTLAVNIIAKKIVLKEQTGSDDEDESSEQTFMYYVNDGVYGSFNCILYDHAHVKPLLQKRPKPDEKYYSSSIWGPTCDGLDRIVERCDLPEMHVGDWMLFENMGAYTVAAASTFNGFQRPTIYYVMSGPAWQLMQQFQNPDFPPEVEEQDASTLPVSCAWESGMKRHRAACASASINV
The following applies: concentrations from 0.6 μM to 80 μM; three separate studies; cited from earlier work.

For series [1], the system named is prostate cancer. The following applies: one year of Proscar; 1 of 25 men with no treatment; p=0.025; cited from earlier work.
The subject of series [2] is tumors harboring Ki-ras mutations. The following applies: AOM-treated rats; reduced from 90%; cited from earlier work.
In series [3] the test system is PSMA messenger RNA in LNCaP prostate cancer cell line. The following applies: LNCaP cells after exposure to DHT; cited from earlier work.
The test system of a further series is mouse epidermis. The following applies: topically applied five percent solution of DFMO; cited from earlier work.
For series [4], the system named is polyamines in rat prostate. The following applies: two weeks of 100 mg/kg DFMO, cited from earlier work.
Series [5] has as its system human prostate polyamine levels and ODC activity. The following applies: cited from earlier work.
A short description of series [6]: Side effects and coagulation parameters in men taking oral DFMO. The format is in vivo, human. The text has this:
(§1) This protocol was approved by the investigational review board of the University of California Irvine and the Long Beach Veterans Administration Medical Center. Men between the ages of 50 and 85, who were undergoing a trans-rectal prostate needle biopsy for either an elevated PSA or abnormal rectal exam, signed a written consent to undergo four additional core needle biopsies of the peripheral zone at the time of their, routine extant biopsy. The additional four biopsies were immediately frozen liquid nitrogen and stored in the minus 70-degree freezer. The […] biopsy was sent to Pathology for routine analysis. […] Patients were monitored for side effects using questionnaires and interview techniques. Coagulation parameters were carefully assessed prior to surgery. In the operating room just prior to the surgical procedure four trans-rectal core biopsies of the peripheral zone were taken and frozen. The pre and post DFMO specimens were sent together to Arizona on dry ice for histology and polyamine analysis. Radical prostatectomy specimens were staged according to the TMN updated 1997 staging system (American Joint Committee on Cancer 1997).

The next series has as its system PSA. In words: Serum PSA in men taking oral DFMO. The format is in vivo, human.
Description: as §1

A further series addresses T2, prostatic ODC (Rattus norvegicus, UniProt P09057).
T2 construct: from tissue; host or cells: rat prostate (animals treated in vivo with DFMO)
T2 sequence (P09057 1-461): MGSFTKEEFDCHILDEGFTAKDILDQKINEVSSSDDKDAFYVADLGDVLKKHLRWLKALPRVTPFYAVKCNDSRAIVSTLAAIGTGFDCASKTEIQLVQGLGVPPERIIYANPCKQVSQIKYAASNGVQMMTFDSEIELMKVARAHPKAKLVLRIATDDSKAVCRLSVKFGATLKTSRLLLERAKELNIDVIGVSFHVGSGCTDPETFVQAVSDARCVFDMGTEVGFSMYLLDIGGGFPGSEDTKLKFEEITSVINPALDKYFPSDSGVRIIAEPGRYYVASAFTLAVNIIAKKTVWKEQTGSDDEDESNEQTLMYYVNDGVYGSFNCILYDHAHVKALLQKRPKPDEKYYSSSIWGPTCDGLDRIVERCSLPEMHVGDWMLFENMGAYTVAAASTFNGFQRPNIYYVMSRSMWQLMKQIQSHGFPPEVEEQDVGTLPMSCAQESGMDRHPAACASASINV
The conditions noted are these: cited from earlier work.

For series [7], the system named is matrilysin expression in LNCaP human prostate cancer derived cells. The experiment in a line: IL-1β-induced matrilysin expression in LNCaP cells. The format is cell-based. The text has this:
As indicated earlier, DFMO acts late in the tumor promotion stage of epithelial carcinogenesis.

The test system of a further series is cutaneous spermine. The following applies: ten percent DFMO cream; ten patients suffering from psoriasis; cited from earlier work.
A further series deals with prostate tumor. The conditions noted are these: rat, in vivo, ip; cited from earlier work.
The test system of series [8] is polyamines (putrescine, spermidine, spermine) in the human prostate. In words: Prostate core biopsy polyamine content before and after 28 days of oral DFMO. The conditions noted are these: oral DFMO 0.5 gm/m^2 for 28 days. Type of series: in vivo. An excerpt: This protocol was approved by the investigational review board of the University of California Irvine and the Long Beach Veterans Administration Medical Center. Men between the ages of 50 and 85, who were undergoing a trans-rectal prostate needle biopsy for either an elevated PSA or abnormal rectal exam, signed a written consent to undergo four additional core needle biopsies of the peripheral zone at the time of their, routine extant biopsy. The additional four biopsies were immediately frozen liquid nitrogen and stored in the minus 70-degree freezer. The […] biopsy was sent to Pathology for routine analysis. […] Patients were monitored for side effects using questionnaires and interview techniques. Coagulation parameters were carefully assessed prior to surgery. In the operating room just prior to the surgical procedure four trans-rectal core biopsies of the peripheral zone were taken and frozen. The pre and post DFMO specimens were sent together to Arizona on dry ice for histology and polyamine analysis. Radical prostatectomy specimens were staged according to the TMN updated 1997 staging system (American Joint Committee on Cancer 1997). To determine prostate core polyamine contents, cores were first thawed, washed in phosphate buffered saline (PBS) and weighted. Samples were then minced in 0.2 N perchloric acid and sonicated to disrupt cellular material. Samples were centrifuged at 2,000×g for 5 minutes to separate acid soluble and insoluble fractions. The acid soluble fraction was evaluated for polyamine contents, using reverse-phase, ion-pared high performance liquid chromatography (PHLC) methods, as described elsewhere ([…] et al. 1994; […] et al 1994; […] et al. 1998). Briefly, polyamines are separated on a C18 B Ondapak column, derivatized with […] separation and detected by absorption of the derivatized material at 750 nm. Mean, median, and range for polyamine levels are reported in nmol/mg protein. The limit of detection of our method is 0.01 nmol/mg. Histological Changes were assessed by bright field microscopy methods. Pre- and post DFMO polyamine values were compared using the Wilcoxon matched-pairs signed rank test. Thus, for each patient we were able to take into account both the magnitude and the direction of changes in polyamines due to DFMO.

The subject of series [9] is prostate cancer. The conditions noted are these: oral fenretinide; 22 men at high risk; trial closed early; cited from earlier work.
[10] abbreviates: two weeks of DFMO 0.5 gm/m^2 orally.
Setting [11] is: oral DFMO 0.5 gm/m^2, about 28 days.

Where “and” joins values, the source holds several entries; their conditions need not be identical. Equal entries are not always repeated. Entries after “also recorded” stand apart in the source; their conditions may differ.

On to `NCCC[C@@](N)(C(=O)O)C(F)F` [D-DFMO], for which, on ODC, the “inhibition of ODC activity” value is reported as “inhibitory”.

For `CC(C)(C)NC(=O)[C@H]1CC[C@H]2[C@@H]3CC[C@H]4NC(=O)C=C[C@]4(C)[C@H]3CC[C@]12C` [Proscar, finasteride], the “men with cancer diagnosed at one year follow up biopsy” value in the series with prostate cancer [1] is 8 of 27.

`CN1C(C(=O)Nc2ccccn2)=C(O)c2ccccc2S1(=O)=O` [piroxicam]: the “number of tumors harboring Ki-ras mutations” value in series [2] is recorded as 25%.

On to `NCCC[C@](N)(C(=O)O)C(F)F` [L-DFMO], for which the “inhibition of ODC activity” value on ODC is “inhibitory”.

For the compound `C[C@]12CCC(=O)C[C@@H]1CC[C@@H]1[C@@H]2CC[C@]2(C)[C@@H](O)CC[C@@H]12` [5-α-dihydroxytestosterone], in [3], the “down-regulation of PSMA mRNA” value is 8-10 fold.

With `NCCC[C@](N)(C(=O)O)C(F)F` [DFMO, alpha-difluoromethylornithine], the “spermine and spermidine levels” value with mouse epidermis is on record as “not affected”. Also, the “putrescine in rat prostate after DFMO” value in series [4] (control 202±37) was 4 ± 4 nmol/g. In series [4] (control 2968±293, no significant reduction), the “spermine in rat prostate after DFMO” value is reported as 2741±346. Moreover, in [4] (control 7334±193), the “spermidine in rat prostate after DFMO” value is 1188±289. The “inhibition of ODC activity” value on ODC is reported as “inhibitory”. For the same compound, the toxicity result in series [5] (fourteen men completed two weeks of DFMO) was “no toxicity”. Moreover, the “ODC activity, DFMO vs placebo” value in [5] (two weeks of DFMO 0.5 gm/m^2) is listed as “no differences”. Moreover, the “mean putrescine level in prostate cores” value in series [5] (two weeks of DFMO 0.5 gm/m^2, placebo 1.95, p=0.03) is listed as 1.43. For the same compound, in [5] (setting [10]), the “spermidine level, DFMO vs placebo” value is reported as “no differences; also recorded: failed to detect any reduction” and the “spermine level, DFMO vs placebo” value is recorded as “no differences; also recorded: failed to detect any reduction”. Also, in series [6] (setting [11]), the “bleeding time prior to surgery” value is on record as “not altered” and the “change in platelet counts or protime” value is “no clinically significant change”. For the same compound, the “men reporting side effects” value in series [6] (oral DFMO 0.5 gm/m^2, average 28.2 days, grade 0 to 1) is “four men”. Besides, the “PSA change on DFMO, patients with malignant pathology” value in the series on PSA (five patients, increase in patients 3,8,9) is given as “increased in 3 of 5”. In addition, in the series with PSA (four patients (1,4,5,7), pre-biopsy or pre-DFMO PSA vs PSA on DFMO), the “PSA change on DFMO, patients with final benign pathology” value is listed as “decreased in each patient”. Also, in the series with PSA (individual patients 1-9, drawn while on DFMO), the “Pre-op PSA” value was 3.7 ng/ml and 7.5 ng/ml and 2.5 ng/ml and 1.4 ng/ml and 5 ng/ml and 2.3 ng/ml and 6.8 ng/ml and 35.5 ng/ml and 8.2* ng/ml. In addition, the “prostatic ODC reduction compared to control” value on prostatic ODC (by 24 hrs, 100 mg/kg every 12 hrs i.p.) was 50%. The “sustained suppression of prostatic ODC activity, remaining activity” value at prostatic ODC (throughout the two week study) was 50 % of baseline activity. In addition, in series [7], the “interleukin-1β (IL-1β)-induced matrilysin expression” value is reported as “suppresses”. Moreover, in the series with cutaneous spermine, the “improvement in psoriatic lesions” value is listed as “marginal improvement” and the “reduction of cutaneous spermine levels” value is reported as “sixty-six percent”. The systemic toxicity result in the series with prostate tumor is on record as “no systemic toxicity”. In series [2], the “number of tumors harboring Ki-ras mutations” value was 36%. For the same compound, the “range of spermine level after DFMO” value in series [8] (n=9) is recorded as 3.24 to 25.58 nmol/mg. Also, in series [8] (n=9, p=0.004), the “spermidine average percent decrease from baseline” value is 73.6% and 74%; the “spermine average decrease from baseline” value was 50.8% and 51%. Moreover, the “average level of spermine after DFMO” value in [8] (n=9, pre-DFMO average 29.14) came to 14.33 nmol/mg. The “median level of spermine after DFMO” value in series [8] (n=9, pre-DFMO median 28.85) is reported as 17.40 nmol/mg. Moreover, the “average level of spermidine after therapy” value in series [8] (n=9, pretreatment average 1.21) is recorded as 0.32 nmol/mg. For the same compound, in series [8] (n=9, pretreatment median 0.81), the “median level of spermidine after therapy” value came to 0.21 nmol/mg. Moreover, the “putrescine level after DFMO” value in series [8] (prostate core biopsy, all nine men, detection limit 0.01 nmol/mg) is “undetectable”. In addition, in series [8] (six men with pre-DFMO putrescine ≧0.01, p=0.031), the “putrescine average decrease from baseline” value is 97.6% and 98%.

In the case of `CC1=C(/C=C/C(C)=C/C=C/C(C)=C/C(=O)Nc2ccc(O)cc2)C(C)(C)CCC1` [fenretinide], the “men with negative prestudy biopsies who developed malignancy while on study” value with prostate cancer [9] is recorded as 8 men.
